{"source": "patent US20220251158A1", "about": "“INTERMEDIATE FILAMENT-DERIVED PEPTIDES AND THEIR USES” (UNIVERSITAT DE LLEIDA, priority 2019, published 2022)"}
{"tested_on": "different populations of leukocytes", "assay": "Annexin V expression in leukocytes with 9 amino acid core peptides", "type": "cell-based", "settings": "9 amino acid peptide added directly to cell culture", "procedure": "For cell death and apoptosis analysis, 400.000 of primary cells or 100.000 of cell line cells were incubated in 96-well plates in 200 μL of complete culture medium for 24 h at 37° C. and 5% CO2 in the absence or presence of 55 μM of different peptides. After 1 hour, 24 hours or 48 hours, apoptosis was measured by CFBlue Annexin V Apoptosis Detection Kit with PI (ANXVKCFB-100T, Immunostep), following kit protocol. For cleaved caspasa-3 intracellular staining, mononuclear cells were permeabilised following the manufacturer's instructions of the FoxP3 Staining Buffer Set (00-5523-00, eBioscience) and the cleaved caspasa-3-Pacific Blue (8788S, Cell Signalling) was used for staining. Cell suspensions were analysed by flow cytometry using FACS CANTO II instrumentation (BD, Biosciences, San Jose, Calif.) and Flowjo (version 8.7) software."}
{"sequence": "VKLALDIEI (Variant of core sequence - GFAP9)", "induction of the expression of annexin V": "not to be positive"}
{"sequence": "VKMALDIEI (Variant of core sequence - Per9)", "induction of the expression of annexin V": "not to be positive"}
{"sequence": "VKMALDVEI (Variant of core sequence - Des9)", "induction of the expression of annexin V": "not to be positive"}
